Assay results reported in US11440909B2, “10H-phenothiazine ferroptosis inhibitor as well as the preparative method and the use thereof” (CHENGDU HENGHAO INVESTMENT CO. LIMITED, priority 2018, dated 2022).
pEC50: −log10 of the molar value. Read-outs that look alike come from different tables or passages of the source.

Experiments:
[1] = test system: rat middle cerebral artery occlusion (MCAO) stroke model; assay: Rat middle cerebral artery occlusion (MCAO) stroke model, different doses; format: in vivo; conditions: for Infarct weight: tail vein injection, 24 h of reperfusion, TTC stain; for Inhibition rate of cerebral infarction: versus model group infarct range
Procedure: By rat middle cerebral artery occlusion (MCAO) stroke model (also called cerebral ischemia model), the therapeutic effect of the compound of the present invention on ischemic stroke in SD rats at different doses was studied. Male SD rats were selected and induced anesthesia by 2-3.0% isoflurane. The middle cerebral artery was blocked by the thread plug method, resulting in rat ischemia model; the ischemic rats were placed at room temperature and kept their body temperature being 37° C. 60 minutes after ischemia onset, the rats were scored by Bederson neurobehavioral scale to determine whether the model was successfully made. 90 min after ischemia onset, the thread plug was pulled out for reperfusion. […] After 24 h of reperfusion, the animals were scored by NSS scale to evaluate neurological deficit. And then the animals were dissected, brains were collected and subjected to TTC stain. […] The percentage of the weight of the infarct tissue based on the weight of the whole brain was regarded as the infarct range (%), and the inhibition rate (%) of each drug treatment group was calculated based on the infarct range.

[2] = test system: fibrosarcoma cell line HT1080; assay: Ferroptosis screening model (MTT method), Erastin-induced ferroptosis; format: cell-based, human
Method in brief: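 HT1080 cells adhered 24 h, then received compound plus Erastin ([…] final) for 72 h at 37 °C, 5% CO2, in triplicate. Viability by MTT with SDS solubilisation, absorbance at 570 nm; inhibition of ferroptosis fitted to give EC50.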

[3] = Homo sapiens, HT-1080, 72 h, HT1080, ferroptosis inducer Erastin, 72 h, average of three tests, read-out: EC50
[4] = HT1080, ferroptosis inducer Erastin, 72 h, average of three tests, read-out: EC50
[5] = positive drug butylphthalide 10 mg/kg

`CC(c1ccc(N2CCN(C)CC2)cc1)c1ccc2c(c1)Nc1ccccc1S2` (stereo not drawn) [Compound A38, 2-(1-(4-(4-methylpiperazin-1-yl)phenyl)ethyl)-10H-phenothiazine] was tested, and the Infarct weight ([1]; high dose 2.5 mg/kg) was 0.126 ± 0.072 g, the “Inhibition rate of cerebral infarction” value ([1]; high dose 2.5 mg/kg) was 50.885% and the Infarct weight ([1]; low dose 0.5 mg/kg) was 0.170 ± 0.041 g. For the same molecule, the “Inhibition rate of cerebral infarction” value ([1]; low dose 0.5 mg/kg) was 31.209%, the Infarct weight ([1]; medium dose 1.25 mg/kg) was 0.152 ± 0.064 g and the “Inhibition rate of cerebral infarction” value ([1]; medium dose 1.25 mg/kg) was 38.968%. For the same molecule, the Infarct weight ([1]; very low dose 0.2 mg/kg) was 0.187 ± 0.078 g, the “Inhibition rate of cerebral infarction” value ([1]; very low dose 0.2 mg/kg) was 27.307% and the pEC50 [2, 3] was 9.30. The pEC50 ([2]; Homo sapiens, HT-1080, HT1080, Erastin, read-out: EC50 value) was ~9.00.

`CC(c1ccc2c(c1)Nc1ccccc1S2)S(=O)(=O)N1CCC(C(N)=O)CC1` (stereo not drawn) [Compound C47, 1-((1-(10H-phenothiazin-2-yl)ethyl)sulfonyl)piperidin-4-formamide] was tested, and the pEC50 [2, 3] was 6.65.

`CC1CN(S(=O)(=O)C(C)c2ccc3c(c2)Nc2ccccc2S3)CC(C)N1` (stereo not drawn) [Compound C48, 2-(1-((3,5-dimethylpiperazin-1-yl)sulfonyl)ethyl)-10H-phenothiazine] was tested, and the pEC50 [2, 3] was 7.46.

Molecule `COc1ccccc1N1CCN(S(=O)(=O)C(C)c2ccc3c(c2)Nc2ccccc2S3)CC1` (stereo not drawn) [Compound C49, 2-(1-((4-(2-methoxylphenyl)piperazin-1-yl)sulfonyl)ethyl)-10H-phenothiazine] has a pEC50 [2, 4] of 6.64.

`C=C(c1cnc(N2CCOCC2)nc1)c1ccc2c(c1)Nc1ccccc1S2` [Compound C51, 4-(5-(1-(10H-phenothiazin-2-yl)ethenyl)pyrimidin-2-yl)morpholine] gave a pEC50 [2, 4] of 6.84.

With `CC(c1ccc2c(c1)Nc1ccccc1S2)S(=O)(=O)N1CCN(c2ncccn2)CC1` (stereo not drawn) [Compound C52, 2-(1-((4-(pyrimidin-2-yl)piperazin-1-yl)sulfonyl)ethyl)-10H-phenothiazine] the pEC50 [2, 3] was 7.16.

In the case of `CC(c1ccc2c(c1)Nc1ccccc1S2)S(=O)(=O)N1CCN(c2ccc(C#N)cc2)CC1` (stereo not drawn) [Compound C53, 4-(4-((1-(10H-phenothiazin-2-yl)ethyl)sulfonyl)piperazin-1-yl)benzonitrile], the pEC50 [2, 3] was 6.74.

`COc1cccc(N2CCN(S(=O)(=O)C(C)c3ccc4c(c3)Nc3ccccc3S4)CC2)c1` (stereo not drawn) [Compound C54, 2-(1-((4-(3-methoxylphenyl)piperazin-1-yl)sulfonyl)ethyl)-10H-phenothiazine] gave a pEC50 [2, 3] of 6.78.

With `CC(c1ccc2c(c1)Nc1ccccc1S2)S(=O)(=O)N1CCN(c2ccc([N+](=O)[O-])cc2)CC1` (stereo not drawn) [Compound C55, 2-(1-((4-(4-nitrophenyl)piperazin-1-yl)sulfonyl)ethyl)-10H-phenothiazine] the pEC50 [2, 3] was 7.15.

Molecule `CC(c1ccc2c(c1)Nc1ccccc1S2)S(=O)(=O)N1CCN(c2ccc(C(F)(F)F)cc2)CC1` (stereo not drawn) [Compound C56, 2-(1-((4-(4-(trifluoromethyl)phenyl)piperazin-1-yl)sulfonyl)ethyl)-10H-phenothiazine] has a pEC50 [2, 3] of 6.67.

For `CC(c1ccc2c(c1)Nc1ccccc1S2)S(=O)(=O)N1CCN(c2cnccn2)CC1` (stereo not drawn) [Compound C57, 2-(1-((4-(pyrazin-2-yl)piperazin-1-yl)sulfonyl)ethyl)-10H-phenothiazine], the pEC50 [2, 3] was 6.89.

With `CCCCN1CCN(S(=O)(=O)C(C)c2ccc3c(c2)Nc2ccccc2S3)CC1` (stereo not drawn) [Compound C58, 2-(1-((4-butylpiperazin-1-yl)sulfonyl)ethyl)-10H-phenothiazine] the pEC50 [2, 3] was 6.75.

With `Cc1ccc(N2CCN(S(=O)(=O)C(C)c3ccc4c(c3)Nc3ccccc3S4)CC2)cc1` (stereo not drawn) [Compound C59, 2-(1-((4-(p-methylphenyl)piperazin-1-yl)sulfonyl)ethyl)-10H-phenothiazine] the pEC50 [2, 3] was 6.85.

`CCOC(=O)c1ccc(NC2CCCCC2)c(N)c1` [Fer-1, Ferrostatin-1, reference compound] showed a pEC50 [2, 4] of 7.22.

For `CCCCC1OC(=O)c2ccccc21` (stereo not drawn) [Positive drug, butylphthalide, reference compound], the NSS score ([1]; positive drug butylphthalide 10 mg/kg, after 24 h of reperfusion) was 8.500 ± 1.401, the Infarct weight [1, 5] was 0.193 ± 0.075 g and the Infarct range ([1]; positive drug butylphthalide 10 mg/kg, infarct tissue weight as % of whole brain weight) was 13.292 ± 4.476 %. The “Inhibition rate of cerebral infarction” value [1, 5] was 24.477%.
